Reference: patent publication US12653892B2, “Composition and method for new therapeutic agents including guanidinium-presenting dendrimers and branched structures” (priority 2020, dated 2026)
In brackets after ≈: the same amount, converted by molar mass. Where two headings read alike, the source gives them in different places.

Key:
S. aureus ATCC 29213 [1] = assay: MIC by broth microdilution, S. aureus ATCC 29213; type: cell-based; conditions: for MIC, Antibiotic +NH2-triguan-6C / MIC, Antibiotic +NO2-triamine-2C / MIC, Antibiotic +NO2-triamine-6C: non-covalent mixture
Method: (§1) Methods—Determination of MICs: MICs for S. aureus, E. faecium, E. coli, P aeruginosa, A. baumannii, K. pneumoniae were determined using broth microdilution in accordance with CLSI methods (Wiegand, I.; Hilpert, K.; Hancock, R. E. W. Agar and Broth Dilution Methods to Determine the Minimal Inhibitory Concentration (MIC) of Antimicrobial Substances. Nat. Protoc. 2008, 3, 163-175). One day prior to each MIC experiment, bacterial strains were streaked for single colonies on TSA plates from frozen glycerol stocks stored at −80° C. Three to five colonies from each plate were harvested with a disposable inoculating loop and resuspended in 500 μL of PBS to create a bacterial suspension. Alternatively, a single colony of the appropriate bacterial strain was added to 4 mL TSB for overnight growth at 37° C. with 200 rpm shaking to create a stationary phase bacterial suspension. The suspension was diluted in PBS to an OD600 of 0.1 (˜[…] CFU/ml), and the OD 0.1 suspension was diluted 1:100 in Mueller Hinton broth (MHB, Difco 257530) just prior to inoculating the 96-well polypropylene treatment plate (Costar 3879). A 50 μL portion of inoculum was added to a treatment plate containing 2-fold serial dilutions of compound in MHB (50 μL of treatment/well) to lend a final total volume of 100 μL/well and a final inoculum density of ˜5×10^5 CFU/ml. The completed assay plate was sealed with Parafilm, placed in a lidded plastic tray lined with moistened paper towels, and incubated at 37° C. for approximately 20 hours. The MIC was read as the lowest treatment concentration where no bacterial growth occurred, as determined by OD600 measurements on a microplate reader. If a different plate or media type was used for a particular test, this is noted below the respective table.

S. aureus ATCC 29213 [2] = conditions: cited from earlier work
S. aureus USA400 (MRSA) = assay: MIC by broth microdilution, S. aureus USA400 (MRSA); type: cell-based; conditions: Staphylococcus aureus
Method: as §1, with “A 50 μL portion of inoculum was added to a treatment plate containing 2-fold serial dilutions of compound in MHB (50 μL of treatment/well) to lend a final total volume of 100 μL/well and a final inoculum density of ˜5×10^5 CFU/ml. The completed assay plate was sealed with Parafilm, placed in a lidded plastic tray lined with moistened paper towels, and incubated at 37° C. for approximately 20 hours.” left out, “If a different plate or media type was used for a particular test, this is noted below the respective table.” left out

M. smegmatis = assay: MIC, resazurin readout, M. smegmatis; type: cell-based; conditions: Mycolicibacterium smegmatis
Method: (§2) MICs for C. glutamicum and the mycobacteria, M. smegmatis and M. abscessus, were determined as follows. A suspension of stationary phase culture was adjusted with PBS to approximately 10^8 CFU/mL and diluted 1:100 in nutrient media just prior to inoculating 96-well polystyrene treatment plates (Costar 3370). Nutrient media was Mueller Hinton Broth for C. glutamicum and Middlebrook media (Middlebrook 7H9 Broth with 0.2% glycerol and 10% OADC supplement, Difco, BD) for mycobacteria. A 50 μL portion of inoculum was added to a treatment plate containing 2-fold serial dilutions of compounds in the same media (50 μL of treatment/well) to lend a final total volume of 100 μL/well and a final inoculum density of ˜5×10^5 CFU/ml. The completed assay plate was sealed with Parafilm, placed in a lidded plastic tray lined with moistened paper towels, and incubated at 37° C. for around 22 h (C. glutamicum), 42-44 h (M. smegmatis) or 46-48 hours (M. abscessus). […] The MIC was identified as the lowest treatment concentration of drug that prevented color change of resazurin from blue to pink/violet, as determined by measuring fluorescence in a black microtiter plate with excitation at 570 nm and emission at 615 nm on a Molecular Devices M5 microplate reader.

M. abscessus = assay: MIC, resazurin readout, M. abscessus; type: cell-based; conditions: Mycobacteroides abscessus
Method: as §2

C. glutamicum = assay: MIC, resazurin readout, C. glutamicum; type: cell-based; conditions: Corynebacterium glutamicum
Method: as §2

E. coli ATCC 25922 = assay: MIC by broth microdilution, E. coli ATCC 25922; type: cell-based; conditions: Escherichia coli, ATCC25922
Method: as §1

E. coli UTI89 = assay: MIC by broth microdilution, E. coli UTI89; type: cell-based; conditions: Escherichia coli
Method: as §1, with “A 50 μL portion of inoculum was added to a treatment plate containing 2-fold serial dilutions of compound in MHB (50 μL of treatment/well) to lend a final total volume of 100 μL/well and a final inoculum density of ˜5×10^5 CFU/ml. The completed assay plate was sealed with Parafilm, placed in a lidded plastic tray lined with moistened paper towels, and incubated at 37° C. for approximately 20 hours.” left out, “If a different plate or media type was used for a particular test, this is noted below the respective table.” left out

[3] = system: E. coli NCTC 13846 (colistin-resistant); assay: MIC by broth microdilution, E. coli NCTC 13846; type: cell-based; conditions: Escherichia coli, NCTC13846
Method: as §1, with “A 50 μL portion of inoculum was added to a treatment plate containing 2-fold serial dilutions of compound in MHB (50 μL of treatment/well) to lend a final total volume of 100 μL/well and a final inoculum density of ˜5×10^5 CFU/ml. The completed assay plate was sealed with Parafilm, placed in a lidded plastic tray lined with moistened paper towels, and incubated at 37° C. for approximately 20 hours.” left out, “If a different plate or media type was used for a particular test, this is noted below the respective table.” left out

E. coli BW25113 = assay: MIC by broth microdilution, E. coli BW25113; type: cell-based; conditions: Escherichia coli
Method: as §1, with “A 50 μL portion of inoculum was added to a treatment plate containing 2-fold serial dilutions of compound in MHB (50 μL of treatment/well) to lend a final total volume of 100 μL/well and a final inoculum density of ˜5×10^5 CFU/ml. The completed assay plate was sealed with Parafilm, placed in a lidded plastic tray lined with moistened paper towels, and incubated at 37° C. for approximately 20 hours.” left out, “If a different plate or media type was used for a particular test, this is noted below the respective table.” left out

E. coli BW25113ΔtolC = assay: MIC by broth microdilution, E. coli BW25113ΔtolC; type: cell-based; conditions: Escherichia coli
Method: as §1, with “A 50 μL portion of inoculum was added to a treatment plate containing 2-fold serial dilutions of compound in MHB (50 μL of treatment/well) to lend a final total volume of 100 μL/well and a final inoculum density of ˜5×10^5 CFU/ml. The completed assay plate was sealed with Parafilm, placed in a lidded plastic tray lined with moistened paper towels, and incubated at 37° C. for approximately 20 hours.” left out, “If a different plate or media type was used for a particular test, this is noted below the respective table.” left out

A. baumannii ATCC 19606 = assay: MIC by broth microdilution, A. baumannii ATCC 19606; type: cell-based; conditions: Acinetobacter baumannii, ATCC19606
Method: as §1, with “A 50 μL portion of inoculum was added to a treatment plate containing 2-fold serial dilutions of compound in MHB (50 μL of treatment/well) to lend a final total volume of 100 μL/well and a final inoculum density of ˜5×10^5 CFU/ml. The completed assay plate was sealed with Parafilm, placed in a lidded plastic tray lined with moistened paper towels, and incubated at 37° C. for approximately 20 hours.” left out, “If a different plate or media type was used for a particular test, this is noted below the respective table.” left out

K. pneumoniae BAA-2146 = assay: MIC by broth microdilution, K. pneumoniae BAA-2146; type: cell-based; conditions: Klebsiella pneumoniae, BAA2146
Method: as §1, with “A 50 μL portion of inoculum was added to a treatment plate containing 2-fold serial dilutions of compound in MHB (50 μL of treatment/well) to lend a final total volume of 100 μL/well and a final inoculum density of ˜5×10^5 CFU/ml. The completed assay plate was sealed with Parafilm, placed in a lidded plastic tray lined with moistened paper towels, and incubated at 37° C. for approximately 20 hours.” left out, “If a different plate or media type was used for a particular test, this is noted below the respective table.” left out

[4] = system: S. aureus USA400 (MRSA), MW2; assay: Minimum Bacterial Eradication Concentration (MBEC) assay; type: cell-based
E. coli 25922 = assay: Time-kill kinetics against E. coli 25922 (FIG. 2); type: cell-based
[5] = S. aureus (ATCC 29213), Mueller Hinton Broth, polypropylene plate
[6] = Staphylococcus aureus, ATCC29213, 20 h, S. aureus (ATCC 29213), Mueller Hinton Broth, polypropylene plate, read-out: MIC, Antibiotic Alone
[7] = S. aureus (ATCC 29213), Mueller Hinton Broth, polypropylene plate, read-out: MIC, Antibiotic Alone
[8] = S. aureus (ATCC 29213), cation-adjusted MHB2, polystyrene microwell plate (Costar 3370)

Compound | MIC, Antibiotic +NH2-triguan-6C (S. aureus ATCC 29213 [1]; [5]) | MIC, Antibiotic +NO2-triamine-2C (S. aureus ATCC 29213 [1]; [5]) | MIC, Antibiotic +NO2-triamine-6C (S. aureus ATCC 29213 [1]; [5]) | MIC (S. aureus ATCC 29213 [1]; [6]) | MIC (S. aureus ATCC 29213 [1]; [7]) | Literature MIC (S. aureus ATCC 29213 [2]) | also measured
O=C1CN(/N=C/c2ccc([N+](=O)[O-])o2)C(=O)N1 [Nitrofurantoin] | 128 µM (≈ 30.5 µg/mL) | 256 µM (≈ 61 µg/mL) | 256 µM (≈ 61 µg/mL) | 128 µM (≈ 30.5 µg/mL) | – | – | –
CC1(C)S[C@@H]2[C@H](NC(=O)Cc3ccccc3)C(=O)N2[C@H]1C(=O)O [Penicillin G] | 2 µM (≈ 0.669 µg/mL) | 4 µM (≈ 1.34 µg/mL) | 4 µM (≈ 1.34 µg/mL) | – | 2 µM (≈ 0.669 µg/mL) | 0.084 to 5.6 µM | –
CO[C@H]1/C=C/O[C@@]2(C)Oc3c(C)c(O)c4c(O)c(c(/C=N/N5CCN(C)CC5)c(O)c4c3C2=O)NC(=O)/C(C)=C\C=C\[C@H](C)[C@H](O)[C@@H](C)[C@@H](O)[C@@H](C)[C@H](OC(C)=O)[C@@H]1C [Rifampicin] | 0.016 µM (≈ 0.0132 µg/mL) | 0.016 µM (≈ 0.0132 µg/mL) | 0.016 µM (≈ 0.0132 µg/mL) | 0.016 µM (≈ 0.0132 µg/mL) | – | – | –
CN(C)[C@@H]1C(O)=C(C(N)=O)C(=O)[C@@]2(O)C(O)=C3C(=O)c4c(O)cccc4[C@@](C)(O)[C@H]3C[C@@H]12 [Tetracycline] | – | – | – | – | – | – | MIC, Antibiotic +NH2-triguan-6C (S. aureus ATCC 29213 [1]; [8]): 2 µM (≈ 0.889 µg/mL); MIC, Antibiotic +NO2-triamine-2C (S. aureus ATCC 29213 [1]; [8]): 2 µM (≈ 0.889 µg/mL); MIC, Antibiotic +NO2-triamine-6C (S. aureus ATCC 29213 [1]; [8]): 2 µM (≈ 0.889 µg/mL); MIC (S. aureus ATCC 29213 [1]; Staphylococcus aureus, ATCC29213, 20 h, S. aureus (ATCC 29213), cation-adjusted MHB2, polystyrene microwell plate (Costar 3370), read-out: MIC, Antibiotic Alone): 2 µM (≈ 0.889 µg/mL)
CN[C@H](CC(C)C)C(=O)N[C@H]1C(=O)N[C@@H](CC(N)=O)C(=O)N[C@H]2C(=O)N[C@H]3C(=O)N[C@H](C(=O)N[C@H](C(=O)O)c4cc(O)cc(O)c4-c4cc3ccc4O)[C@H](O)c3ccc(c(Cl)c3)Oc3cc2cc(c3O[C@@H]2O[C@H](CO)[C@@H](O)[C@H](O)[C@H]2O[C@H]2C[C@](C)(N)[C@H](O)[C@H](C)O2)Oc2ccc(cc2Cl)[C@H]1O [Vancomycin] | 1 µM (≈ 1.45 µg/mL) | 1 µM (≈ 1.45 µg/mL) | 0.5 to 1 µM | – | – | 0.34 to 1.4 µM | MIC (S. aureus ATCC 29213 [1]; Staphylococcus aureus, ATCC29213): 0.5 to 1 µM (≈ 0.725 to 1.45 µg/mL); MIC (S. aureus ATCC 29213 [1]; Staphylococcus aureus, ATCC29213, 20 h, read-out: MIC, Antibiotic Alone): 0.5 to 1 µM (≈ 0.725 to 1.45 µg/mL); MIC (S. aureus USA400 (MRSA)): 1 µM (≈ 1.45 µg/mL); MIC (M. smegmatis): 8 to 16 µM (≈ 11.6 to 23.2 µg/mL); MIC (M. abscessus): 64 µM (≈ 92.8 µg/mL); MIC (C. glutamicum): 0.25 µM (≈ 0.362 µg/mL); MIC (E. coli ATCC 25922): 128 µM (≈ 186 µg/mL); MIC (E. coli UTI89): 128 µM (≈ 186 µg/mL); MIC [3]: 64 to 128 µM (≈ 92.8 to 186 µg/mL); MIC (E. coli BW25113): 128 µM (≈ 186 µg/mL); MIC (E. coli BW25113ΔtolC): 128 to 256 µM (≈ 186 to 371 µg/mL); MIC (A. baumannii ATCC 19606): 128 µM (≈ 186 µg/mL); MIC (K. pneumoniae BAA-2146): > 256 µM; MBEC [4]: >512 µM; Concentration at which effective in time-kill (E. coli 25922): 256 µM
Gentamicin | 0.5 µM | 0.5 µM | 1 µM | – | 0.5 µM | 0.26 to 2.1 µM | –
